Measurements taken from patent publication US20230103791A1 (GLAXOSMITHKLINE INTELLECTUAL PROPERTY DEVELOPMENT LIMITED, priority 2019, published 2023).

biological target: T1, human Nav1.8 (Homo sapiens, UniProt Q9Y5Y9); test: Nav1.8 sodium channels assay, QPatch 48 HTX electrophysiology in HEK293-Nav1.8 cells; type: cell-based; settings: at least one set of experimental runs; read-out: average pIC50 value against Nav1.8 (converted)
T1 construct: expressed in transfected cells; host or cells: HEK293 (HEK293-Nav1.8)
T1 sequence (Q9Y5Y9 whole entry): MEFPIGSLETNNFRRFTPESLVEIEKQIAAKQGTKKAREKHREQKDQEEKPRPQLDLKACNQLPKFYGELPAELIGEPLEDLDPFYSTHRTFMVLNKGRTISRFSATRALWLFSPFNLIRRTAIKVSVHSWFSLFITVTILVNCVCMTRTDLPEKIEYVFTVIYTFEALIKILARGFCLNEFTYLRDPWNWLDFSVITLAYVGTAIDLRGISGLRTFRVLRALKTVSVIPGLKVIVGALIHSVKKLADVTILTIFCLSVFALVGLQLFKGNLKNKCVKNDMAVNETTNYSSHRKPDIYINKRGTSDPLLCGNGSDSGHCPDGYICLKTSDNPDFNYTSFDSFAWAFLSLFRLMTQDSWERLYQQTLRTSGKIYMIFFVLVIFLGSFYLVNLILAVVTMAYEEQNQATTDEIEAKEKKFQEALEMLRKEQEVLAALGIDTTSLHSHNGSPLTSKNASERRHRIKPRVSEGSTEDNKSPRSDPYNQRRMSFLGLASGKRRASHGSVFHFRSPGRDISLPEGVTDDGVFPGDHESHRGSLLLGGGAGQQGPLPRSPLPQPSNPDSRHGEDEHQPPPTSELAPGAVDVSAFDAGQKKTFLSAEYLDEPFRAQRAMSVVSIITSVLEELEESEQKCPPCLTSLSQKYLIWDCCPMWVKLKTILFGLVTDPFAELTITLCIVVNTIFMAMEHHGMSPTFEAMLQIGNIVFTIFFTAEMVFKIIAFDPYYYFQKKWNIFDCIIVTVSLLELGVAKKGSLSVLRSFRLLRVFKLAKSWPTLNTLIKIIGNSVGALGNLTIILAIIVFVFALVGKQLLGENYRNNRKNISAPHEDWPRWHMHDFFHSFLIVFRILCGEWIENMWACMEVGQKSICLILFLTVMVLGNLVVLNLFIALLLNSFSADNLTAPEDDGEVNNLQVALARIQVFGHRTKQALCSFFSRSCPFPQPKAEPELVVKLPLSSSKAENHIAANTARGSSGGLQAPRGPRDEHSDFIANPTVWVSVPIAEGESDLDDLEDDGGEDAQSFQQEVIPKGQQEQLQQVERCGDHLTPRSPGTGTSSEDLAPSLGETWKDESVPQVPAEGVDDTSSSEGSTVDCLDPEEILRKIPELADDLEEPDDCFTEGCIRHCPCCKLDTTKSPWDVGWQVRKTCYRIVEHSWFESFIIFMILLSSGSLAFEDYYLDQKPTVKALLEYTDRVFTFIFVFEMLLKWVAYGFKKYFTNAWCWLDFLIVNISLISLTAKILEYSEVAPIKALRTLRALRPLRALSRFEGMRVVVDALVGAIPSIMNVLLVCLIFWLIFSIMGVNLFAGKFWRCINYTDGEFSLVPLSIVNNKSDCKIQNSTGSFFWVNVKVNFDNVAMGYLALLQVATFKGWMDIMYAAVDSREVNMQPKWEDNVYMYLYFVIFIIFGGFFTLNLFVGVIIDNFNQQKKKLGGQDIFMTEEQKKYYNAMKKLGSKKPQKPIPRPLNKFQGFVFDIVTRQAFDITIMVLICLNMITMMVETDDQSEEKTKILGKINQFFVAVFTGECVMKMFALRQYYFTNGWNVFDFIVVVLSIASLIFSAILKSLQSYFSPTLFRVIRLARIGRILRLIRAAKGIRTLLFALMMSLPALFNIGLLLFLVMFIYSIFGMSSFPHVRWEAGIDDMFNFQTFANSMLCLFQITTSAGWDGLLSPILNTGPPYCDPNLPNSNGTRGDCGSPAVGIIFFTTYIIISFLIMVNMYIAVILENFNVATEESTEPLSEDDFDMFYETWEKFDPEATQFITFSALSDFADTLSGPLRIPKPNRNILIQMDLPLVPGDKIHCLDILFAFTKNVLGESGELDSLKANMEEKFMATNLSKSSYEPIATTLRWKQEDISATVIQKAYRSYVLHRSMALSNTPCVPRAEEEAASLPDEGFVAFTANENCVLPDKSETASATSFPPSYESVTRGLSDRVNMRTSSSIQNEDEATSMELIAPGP
T1 sequence (Q07699 19-218 partner): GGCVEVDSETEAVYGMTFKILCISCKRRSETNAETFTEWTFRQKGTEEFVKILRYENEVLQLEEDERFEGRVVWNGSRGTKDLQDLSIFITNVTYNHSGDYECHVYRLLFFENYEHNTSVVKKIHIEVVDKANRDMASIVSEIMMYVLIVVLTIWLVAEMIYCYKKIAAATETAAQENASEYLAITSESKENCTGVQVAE
Outline: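 HEK293 cells co-expressing human Nav1.8, Navβ1 and TREK1 were voltage-clamped on QPatch 48 HTX. The V1/2 protocol ran at 0.07 Hz: hold −100 mV, 20 ms to 0 mV, 8 s at −46 mV, 20 ms at −100 mV, then 20 ms at 0 mV (P2). P2 current was fitted over 6-8 concentrations for IC50, with vehicle wells used to correct for run-down.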

Compound	IC50 [nM]
Cc1cc(F)ccc1N1CN(c2ccc(=O)[nH]c2NCCO)C(=O)c2ccc(C(F)(F)F)cc21 [Example 199, 1-(4-fluoro-2-methylphenyl)-3-(2-((2-hydroxy-ethyl)amino)-6-oxo-1,6-dihydropyridin-3-yl)-7-(trifluoromethyl)-2,3-dihydroquinazolin-4(1H)-one]	126 to 631
Cc1[nH]c(=O)ccc1N1CN(c2ccc(F)cc2N(C)C)c2ccc(Cl)cc2C1=O [Example 200, 6-chloro-1-(2-(dimethylamino)-4-fluorophenyl)-3-(2-methyl-6-oxo-1,6-dihydropyridin-3-yl)-2,3-dihydroquinazolin-4(1H)-one]	≤ 100
CNc1cc(F)ccc1N1CN(c2ccc(=O)[nH]c2C)C(=O)c2cc(Cl)ccc21 [Example 201, 6-chloro-1-(4-fluoro-2-(methylamino)phenyl)-3-(2-methyl-6-oxo-1,6-dihydropyridin-3-yl)-2,3-dihydroquinazolin-4(1H)-one]	≤ 100
Cc1cc(C(F)(F)CO)ccc1N1CN(c2ccc(=O)[nH]c2C)C(=O)c2ccc(C(F)(F)F)cc21 [Example 202, 1-(4-(1,1-difluoro-2-hydroxyethyl)-2-methylphenyl)-3-(2-methyl-6-oxo-1,6-dihydropyridin-3-yl)-7-(trifluoromethyl)-2,3-dihydroquinazolin-4(1H)-one]	794 to 7940
Cc1ccc(N2CN(c3ccc(=O)[nH]c3C)C(=O)c3ccc(C(F)(F)F)cc32)c(C)c1 [Example 203, 1-(2,4-dimethylphenyl)-3-(2-methyl-6-oxo-1,6-dihydropyridin-3-yl)-7-(trifluoromethyl)-2,3-dihydroquinazolin-4(1H)-one]	≤ 100
Cc1cc(F)ccc1N1CN(c2ccc[nH]c2=O)C(=O)c2ccc(C(F)(F)F)cc21 [Example 204, 1-(4-fluoro-2-methylphenyl)-3-(2-oxo-1,2-dihydropyridin-3-yl)-7-(trifluoromethyl)-2,3-dihydroquinazolin-4(1H)-one]	794 to 7940
Cc1cc(F)ccc1N1CN(c2cnc(=O)[nH]c2C)C(=O)c2ccc(OC(F)(F)F)cc21 [Example 205, 1-(4-fluoro-2-methylphenyl)-3-(6-methyl-2-oxo-1,2-dihydropyrimidin-5-yl)-7-(trifluoromethoxy)-2,3-dihydroquinazolin-4(1H)-one]	≤ 100
Cc1ccc2c(n1)N(c1ccc(F)cc1C)CN(c1ccc(=O)[nH]c1C)C2=O [Example 206, 1-(4-fluoro-2-methylphenyl)-7-methyl-3-(2-methyl-6-oxo-1,6-dihydropyridin-3-yl)-2,3-dihydropyrido[2,3-d]pyrimidin-4(1H)-one]	126 to 631
CCc1cc(F)ccc1N1CN(c2ccc(=O)[nH]c2C)C(=O)c2cc(Cl)c(C#N)nc21 [Example 207, 6-chloro-1-(2-ethyl-4-fluorophenyl)-3-(2-methyl-6-oxo-1,6-dihydropyridin-3-yl)-4-oxo-1,2,3,4-tetrahydropyrido [2,3-d]pyrimidine-7-carbonitrile]	≤ 100
Cc1cc(F)ccc1N1CN(c2ccc(=O)n(C)c2C)C(=O)c2cc(C(F)(F)F)ccc21 [Example 209, 3-(1,2-dimethyl-6-oxo-1,6-dihydropyridin-3-yl)-1-(4-fluoro-2-methylphenyl)-6-(trifluoromethyl)-2,3-dihydroquinazolin-4(1H)-one]	126 to 631
Cc1cc(F)ccc1N1CN(c2ccc(=O)[nH]c2Cl)C(=O)c2cc(C(F)(F)F)ccc21 [Example 210, 3-(2-chloro-6-oxo-1,6-dihydropyridin-3-yl)-1-(4-fluoro-2-methylphenyl)-6-(trifluoromethyl)-2,3-dihydroquinazolin-4(1H)-one]	126 to 631
Cc1cc(F)ccc1N1CN(c2c(C)cc(=O)[nH]c2Br)C(=O)c2ccc(C(F)(F)F)cc21 [Example 211, 3-(2-bromo-4-methyl-6-oxo-1,6-dihydropyridin-3-yl)-1-(4-fluoro-2-methylphenyl)-7-(trifluoromethyl)-2,3-dihydroquinazolin-4(1H)-one]	794 to 7940
Cc1[nH]c(=O)ccc1N1CN(c2ccc(F)cc2C(C)C)c2nc(C(F)(F)F)ccc2C1=O [Example 212, 1-(4-fluoro-2-isopropylphenyl)-3-(2-methyl-6-oxo-1,6-dihydropyridin-3-yl)-7-(trifluoromethyl)-2,3-dihydropyrido[2,3-d]pyrimidin-4(1H)-one]	≤ 100
Cc1[nH]c(=O)ccc1N1CN(c2ccc(F)cc2C(C)C)c2ncc(Cl)cc2C1=O [Example 213, 6-chloro-1-(4-fluoro-2-isopropylphenyl)-3-(2-methyl-6-oxo-1,6-dihydropyridin-3-yl)-2,3-dihydropyrido[2,3-d]pyrimidin-4(1H)-one]	126 to 631
Cc1cc(F)ccc1N1CN(c2ccc(=O)[nH]c2C)C(=S)c2ccc(C(F)(F)F)cc21 [Example 214, 5-(1-(4-fluoro-2-methylphenyl)-4-thioxo-7-(trifluoromethyl)-1,4-dihydroquinazolin-3(2H)-yl)-6-methylpyridin-2(1H)-one]	≤ 100
Cc1cc(F)ccc1N1CN(c2ccc(=O)[nH]c2)C(=O)c2cc(C(F)(F)F)ccc21 [Example 215, 1-(4-Fluoro-2-methylphenyl)-3-(6-oxo-1,6-dihydropyridin-3-yl)-6-(trifluoromethyl)-2,3-dihydroquinazolin-4(1H)-one]	126 to 631

Compound	IC50 [nM]
COc1cc(F)ccc1N1CN(c2ccc(=O)[nH]c2)C(=O)c2ccc(C(F)(F)F)cc21 [Example 216, 1-(4-fluoro-2-methoxyphenyl)-3-(6-oxo-1,6-dihydropyridin-3-yl)-7-(trifluoromethyl)-2,3-dihydroquinazolin-4(1H)-one]	126 to 631
Cc1cc(F)ccc1N1CN(c2ccc(=O)[nH]c2)C(=O)c2c1cccc2C(F)(F)F [Example 217, 1-(4-fluoro-2-methylphenyl)-3-(6-oxo-1,6-dihydropyridin-3-yl)-5-(trifluoromethyl)-2,3-dihydroquinazolin-4(1H)-one]	794 to 7940
Cc1cc(F)ccc1N1CN(c2c[nH]c(=O)c(C)c2)C(=O)c2ccc(C(F)(F)F)cc21 [Example 218, 1-(4-fluoro-2-methylphenyl)-3-(5-methyl-6-oxo-1,6-dihydropyridin-3-yl)-7-(trifluoromethyl)-2,3-dihydroquinazolin-4(1H)-one]	126 to 631
Cc1cc(F)ccc1N1CN(c2ccc(=O)[nH]n2)C(=O)c2ccc(C(F)(F)F)cc21 [Example 219, 1-(4-fluoro-2-methylphenyl)-3-(6-oxo-1,6-dihydropyridazin-3-yl)-7-(trifluoromethyl)-2,3-dihydroquinazolin-4(1H)-one]	794 to 7940
O=C1c2ccc(C(F)(F)F)cc2N(Cc2ccc(F)cc2)CN1c1ccc(=O)[nH]c1 [Example 220, 1-(4-fluorobenzyl)-3-(6-oxo-1,6-dihydropyridin-3-yl)-7-(trifluoromethyl)-2,3-dihydroquinazolin-4(1H)-one]	794 to 7940
Cc1cc(=O)[nH]cc1N1CN(c2ccc(F)cc2C)c2cc(C(F)(F)F)ccc2C1=O [Example 221, 1-(4-fluoro-2-methylphenyl)-3-(4-methyl-6-oxo-1,6-dihydropyridin-3-yl)-7-(trifluoromethyl)-2,3-dihydroquinazolin-4(1H)-one]	126 to 631
Cc1cc(F)ccc1N1CN(c2ccc(=O)[nH]c2)C(=O)c2ccc(C#N)cc21 [Example 222, 1-(4-fluoro-2-methylphenyl)-4-oxo-3-(6-oxo-1,6-dihydropyridin-3-yl)-1,2,3,4-tetrahydro-quinazoline-7-carbonitrile]	794 to 7940
COc1cc(F)ccc1N1CN(c2ccc(=O)[nH]c2)C(=O)c2c1cccc2C(F)(F)F [Example 223, 1-(4-fluoro-2-methoxyphenyl)-3-(6-oxo-1,6-dihydropyridin-3-yl)-5-(trifluoromethyl)-2,3-dihydroquinazolin-4(1H)-one]	794 to 7940
Cc1ncsc1N1CN(c2ccc(=O)[nH]c2C)C(=O)c2cc(C(F)(F)F)ccc21 [Example 224, 3-(2-methyl-6-oxo-1,6-dihydropyridin-3-yl)-1-(4-methylthiazol-5-yl)-6-(trifluoromethyl)-2,3-dihydroquinazolin-4(1H)-one]	794 to 7940
COc1ccc(N2CN(c3ccc(=O)[nH]c3C)C(=O)c3cc(C(F)(F)F)ccc32)c(OC)c1 [Example 225, 1-(2,4-dimethoxyphenyl)-3-(2-methyl-6-oxo-1,6-dihydropyridin-3-yl)-6-(trifluoromethyl)-2,3-dihydroquinazolin-4(1H)-one]	≤ 100
COc1cc(F)ccc1N1CN(c2ccc(=O)[nH]c2C)C(=O)c2cc(C(F)(F)F)ccc21 [Example 226, 1-(4-fluoro-2-methoxyphenyl)-3-(2-methyl-6-oxo-1,6-dihydropyridin-3-yl)-6-(trifluoromethyl)-2,3-dihydroquinazolin-4(1H)-one]	≤ 100
Cc1cc(F)ccc1N1CN(c2ccc(=O)[nH]c2C)C(=O)c2cc(F)c(Cl)nc21 [Example 227, 7-chloro-6-fluoro-1-(4-fluoro-2-methylphenyl)-3-(2-methyl-6-oxo-1,6-dihydropyridin-3-yl)-2,3-dihydropyrido[2,3-d]pyrimidin-4(1H)-one]	≤ 100
COc1cc(F)ccc1N1CN(c2ccc(=O)[nH]c2)C(=O)c2ccc(C#N)cc21 [Example 229, 1-(4-fluoro-2-methoxyphenyl)-4-oxo-3-(6-oxo-1,6-dihydropyridin-3-yl)-1,2,3,4-tetra-hydroquinazoline-7-carbonitrile]	794 to 7940
Cc1cc(F)ccc1N1CN(c2ccc(=O)[nH]c2C)C(=O)c2ccc(OCC(F)(F)F)cc21 [Example 230, 1-(4-fluoro-2-methylphenyl)-3-(2-methyl-6-oxo-1,6-dihydropyridin-3-yl)-7-(2,2,2-trifluoroethoxy)-2,3-dihydroquinazolin-4(1H)-one]	≤ 100
Cc1cc(OC(F)(F)F)ccc1N1CN(c2ccc(=O)[nH]c2)C(=O)c2cc(C(F)(F)F)ccc21 [Example 231, 1-(2-methyl-4-(trifluoromethoxy)phenyl)-3-(6-oxo-1,6-dihydropyridin-3-yl)-6-(trifluoromethyl)-2,3-dihydroquinazolin-4(1H)-one]	≤ 100
